# Measurements: paper PMC12081876, “Identification of PTGR2 inhibitors as a new therapeutic strategy for diabetes and obesity” (EMBO Molecular Medicine, 2025)
# “And” between values parts separate entries of the source, which are not always exact repeats. Identical values can stand only once.
# What was measured:
# [1] = test system: PPARγ-null 3T3-L1 clones rescued with wild-type mPPARγ; assay: Insulin-stimulated glucose uptake in PPARγ-null 3T3-L1 clones rescued with wild-type mPPARγ; type: cell-based, mouse; conditions: Pio 1; clone #1296 rescued with wild-type mPPARγ
# Protocol: (§1) Gene editing was performed in 3T3-L1 preadipocytes using the clustered regularly interspaced short palindromic repeats (CRISPR)/Cas9 system. Two single-guide RNAs (sgRNA) (Appendix Table S5) targeting exon 6 of mouse Pparγ were designed using a web-based design tool (http://crispr.mit.edu/). These oligonucleotides were cloned into the pSurrogate reporter and pAll-Cas9.Ppuro vector obtained from Academia Sinica, Taiwan. The pSurrogate reporter contains an EGFP and an out-of-frame mCherry downstream of the sgRNA; the pAll-Cas9.Ppuro vector expresses Cas9 nuclease and sgRNA. Once a double-strand breaking at the target site in pSurrogate reporter plasmid was created by Cas9, insertions and deletions (indels) could be introduced at the cleaved site. The indels cause frameshifts and result in the expression of the mCherry gene. 3T3-L1 preadipocytes were co-transfected with pSurrogate reporter and pAll-Cas9.Ppuro vectors at 80-90% confluency using PolyJet™ transfection reagent (cat. no. SL100688, SignaGen Laboratories, USA). Two days after transfection, EGFP/mCherry double-positive cells were enriched by fluorescent-activated cell sorting. Single cells were isolated and expanded. The genomic DNA was amplified by PCR and sequenced to confirm the knockout cell lines. The primer sequences are shown in Appendix Table S5.
# (§2) The mPPARγ C313A DNA sequence was amplified from pCMV6-Pparg C313A and subcloned into the pLVX-IRES-Neo vector with XhoI/NotI restriction sites. The lentiviral expression plasmids, pMD.G, and pCMVΔR8.91 (RNAi Core, Academia Sinica, Taiwan), were co-transfected into HEK293T cells. […] HSP70 was probed with an anti-HSP70 antibody (cat. no. ab45133, Abcam) as a loading control.
# (§3) Differentiated 3T3-L1 cells were starved with serum-free DMEM containing 0.2% BSA (cat. no. A9647, Sigma-Aldrich). […] Uptake of 2DG was terminated by rapidly removing medium and washing with ice-cold PBS three times. Cells were lysed with 0.1% SDS, and the radioactivity was measured using a liquid scintillation counter. Insulin-mediated glucose uptake was calculated by subtracting insulin-treated glucose uptake with basal glucose uptake.
# [2] = test system: differentiated 3T3-L1 adipocytes; assay: Insulin-stimulated glucose uptake assay by (3H)2-deoxyglucose; type: cell-based, mouse; parameters: insulin-stimulated glucose uptake, Fig 1J replicates / Figure 5E raw value, insulin-stimulated glucose uptake (replicates): unit not given here
# Protocol: (§4) The cell lines, which were tested for mycoplasma contamination and authenticated, were purchased from the Bioresource Collection and Research Center, Taiwan. All cells were cultured at 37 °C, 5% CO2 in a humidified incubator. HEK293T cells were maintained in DMEM (cat. no. SH30003.02, HyClone) supplemented with 10% fetal bovine serum (FBS) (cat. no. 04-001-1A, Biological Industries) and 1% antibiotic/antimycotic solution (cat. no. SV30079.01, HyClone). 3T3-L1 preadipocytes were maintained at ~70% confluence in DMEM with 10% calf serum (cat. no. 16170078, Gibco) and 1% antibiotic/antimycotic solution. For adipocyte differentiation, confluent 3T3-L1 cells (defined as day 0) were exposed to an induction medium containing 10% FBS, 1 μM dexamethasone (cat. no. D4902, Sigma-Aldrich), and 1 μg/ml insulin (Humulin R, Eli Lilly) in DMEM with or without 0.5 mM isobutyl-methylxanthine (cat. no. sc-201188A, Santa Cruz Biotechnology) as indicated. After two days, the medium was replaced with DMEM containing 10% FBS and 1 μg/ml insulin and was replenished every two days until assay.
# Differentiated 3T3-L1 cells were starved with serum-free DMEM containing 0.2% BSA (cat. no. A9647, Sigma-Aldrich). Cells were rinsed twice with KRH buffer (137 mM NaCl, 4.7 mM KCl, 1.85 mM CaCl2, 1.3 mM MgSO4, 50 mM HEPES and 0.1% BSA, pH 7.4), and treated with or without […] insulin in the presence of 20 μM cytochalasin B (cat. no. 11328, Cayman Chemical), a GLUT inhibitor for measuring non-specific glucose uptake, for 30 min. Cells were then incubated with 0.5 μCi [^3H]-2-deoxy-D-Glucose (cat. no. NET328A001MC, PerkinElmer) and 0.1 μM 2-deoxy-D-Glucose (2DG) (cat. no. 14325, Cayman Chemical) for 5 min. Uptake of 2DG was terminated by rapidly removing medium and washing with ice-cold PBS three times. Cells were lysed with 0.1% SDS, and the radioactivity was measured using a liquid scintillation counter. Insulin-mediated glucose uptake was calculated by subtracting insulin-treated glucose uptake with basal glucose uptake.
# [3] = test system: PPARγ-null 3T3-L1 clones rescued with mutant mPPARγ (C313A); assay: Insulin-stimulated glucose uptake in PPARγ-null 3T3-L1 clones rescued with mutant mPPARγ (C313A); type: cell-based, mouse; conditions: Pio 1; clone #1296 rescued with mPPARγ C313A
# Protocol: as §1, §2, §3
# [4] = test system: mPPARγ-downstream genes; assay: RT-qPCR of Glut4 and other mPPARγ-downstream genes in differentiated 3T3-L1 adipocytes; type: cell-based, mouse
# Protocol: as §4
# A total of 1 × 10^5 3T3-L1 preadipocytes were seeded in 6-well plates and differentiated for six days. The 3T3-L1 adipocytes were then harvested in 1 ml of REzol C&T (cat. no. PT-KP200CT, Protech), and total RNA was extracted according to the manufacturer’s instructions with slight modifications. Briefly, 200 μl of chloroform were added to 1 ml of sample in REzol, and samples were vigorously mixed by shaking for 30 s, followed by incubation at room temperature for 5 min. Then, samples were centrifuged at 12,000 × g for 15 min at 4 °C, and 400 μl of the upper aqueous phase were transferred to a new 1.5-ml tube. An equal volume of isopropanol was added. Samples were inverted several times for mixing and then centrifuged at 12,000 × g for 10 min at 4 °C. The RNA precipitate, which formed a pellet at the bottom of the 1.5-ml tube, was washed three times with 75% ethanol and air-dried for 15 min. Pellets were dissolved in RNase-free water. The concentration of RNA was measured using Nanodrop. cDNA was synthesized using a reverse transcription kit (cat. no. K1622, Thermo Scientific) using the oligo(dT)18 primers. RT-qPCR was performed in a 10-μl reaction with 50 ng cDNA and 0.2 μM primer using SYBR green reagent (cat. no. 11203ES08, YEASEN). Mouse peptidylprolyl isomerase A (Ppia) mRNA was used as the internal control. RT-qPCR reactions were performed using ABI 7900HT FAST (Applied Biosystems) and Sequence Detection Systems (SDS v2.3, Applied Biosystems). All qPCR reactions were run in duplicates. The primers used are listed in Appendix Table S3.
# [5] = test system: PTGR2; parameters: method as in Toroitich et al, 2021; conditions: ref Toroitich et al, 2021; cited from earlier work
# [6] = test system: PTGR2; parameters: method as in Toroitich et al, 2021; conditions: ref Toroitich et al, 2021; cited from earlier work; remark: listed apart in the source
compound,measurement,setting,value
"CCc1ccc(CCOc2ccc(CC3SC(=O)NC3=O)cc2)nc1 (stereo not shown) [Pio, pioglitazone]","insulin-stimulated glucose uptake, Fig 1P left panel replicates",[1],4.143 and 3.599 and 3.13 and 3.624
same,"insulin-stimulated glucose uptake, Fig 1J replicates",[2]; Pio 1,4.303 and 3.949 and 2.761 and 3.925
same,"insulin-stimulated glucose uptake, Fig 1P right panel replicates",[3],4.613 and 5.328 and 5.351 and 7.42
same,"Adipoq RT-qPCR, Fig 1I replicates",[4]; Pio 1μM,1.437 and 1.615 and 1.7913
same,"Cepba RT-qPCR, Fig 1H replicates",[4]; Pio 1μM,2.586 and 1.702 and 2.911
same,"Acs RT-qPCR, Fig 1G replicates",[4]; Pio 1,6.866 and 5.338 and 5.547
same,"Cd36 RT-qPCR, Fig 1F replicates",[4]; Pio 1,2.685 and 1.765 and 2.147
same,"Glut4 RT-qPCR, Fig 1C replicates",[4]; Pio 1,6.074 and 7.473 and 6.277
same,"Irs2 RT-qPCR, Fig 1D replicates",[4]; Pio 1,3.5423 and 3.905 and 3.691
same,"Sorbs1 RT-qPCR, Fig 1E replicates",[4]; Pio 1,2.4621 and 3.493 and 3.111
CCCCCC(=O)/C=C/[C@H]1[C@H](O)CC(=O)[C@@H]1C/C=C\CCCC(=O)O [15ketoPGE2],"Figure 5E raw value, insulin-stimulated glucose uptake (replicates)","[2]; 10 uM, DMSO control 2969.5-4461.5",5153.5 and 5837.5 and 5784.5 and 5754.5
O=C(c1ccc(S(=O)(=O)n2cncn2)cc1)N1CCC(c2ccccc2)CC1 [HHS-0701],intracellular 15-keto-PGE2 concentration,[5],increase intracellular 15-keto-PGE2 concentration dose-dependently
same,PTGR2 enzymatic activity,[6],inhibit PTGR2 enzymatic activity
